Measurements from PubChem BioAssay (NCI).
Values joined by “and” are separate entries in the source; they are usually repeats but may differ in a detail not shown here. Equal entries are not always repeated.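 Five compound concentrations were applied to cells in 96-well plates for 48 hours; endpoints were derived by simple linear interpolation of the resulting dose-response curve. GI50 marks 50% less growth. At the TGI there is no net growth.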

Assays:
Experiment in all cases: inhibition of tumour cell growth, NCI panel, 48 h
SF-539 CNS = tested on: SF-539 CNS
OVCAR-3 ovarian = tested on: OVCAR-3 ovarian
UO-31 renal = tested on: UO-31 renal
NCI-H460 lung = tested on: NCI-H460 lung
ACHN renal = tested on: ACHN renal
SN12C renal = tested on: SN12C renal
LOX IMVI melanoma = tested on: LOX IMVI melanoma
NCI-H226 lung = tested on: NCI-H226 lung
HOP-62 NSCLC = tested on: HOP-62 NSCLC
MDA-N = tested on: MDA-N

SMILES	GI50 (SF-539 CNS) [µM]	TGI (SF-539 CNS) [µM]	GI50 (OVCAR-3 ovarian) [µM]	TGI (OVCAR-3 ovarian) [µM]	GI50 (UO-31 renal) [µM]	TGI (UO-31 renal) [µM]	GI50 (NCI-H460 lung) [µM]	TGI (NCI-H460 lung) [µM]	GI50 (ACHN renal) [µM]	TGI (ACHN renal) [µM]	GI50 (SN12C renal) [µM]	TGI (SN12C renal) [µM]	GI50 (LOX IMVI melanoma) [µM]	TGI (LOX IMVI melanoma)	TGI (NCI-H226 lung) [µM]	TGI (HOP-62 NSCLC) [µM]	TGI (MDA-N) [µM]	GI50 (NCI-H226 lung) [µM]	GI50 (HOP-62 NSCLC) [µM]
Fc1ccc(C2CC(c3cccc(Nc4ccncc4)c3)=NN2c2cc(Cl)cc(Cl)c2)cc1 (configuration not stated)	1.64	3.11	1.8	3.32	1.36	2.66	1.87	3.55	1.66	3.02	1.69	3.16	1.6	2.94 µM					
CC(=O)NC1=C(C)C(=O)c2c(nc3n2CCC3O)C1=O (configuration not stated)		51.3		> 46.1		> 100		> 100		> 100		> 100		> 100 µM	63.4	> 100			
O=C(NCCCCNCCCNC(=O)c1ccccc1)c1ccccc1		> 100		> 100		> 100		> 100		> 100		> 100			> 100	> 100			
CN(C)CCOC(=O)c1ccc(N)cc1				> 100		> 100		> 100		> 100		> 100		> 100 µM	67.4	> 100	> 100		
CC(=NCCN(CCN=C(C)c1c(O)cc(C)oc1=O)CCN=C(C)c1c(O)cc(C)oc1=O)c1c(O)cc(C)oc1=O		> 100				> 100		> 100		> 100		> 100				> 100	> 100		
COc1ccccc1NC(=S)N/N=C(/C)c1ccccn1		14.9				> 83.4		3.22		12.9		6.73		67.2 µM		36.7	> 100		
CCc1nn(S(=O)(=O)c2ccc(C)cc2)c2c1CS(=O)(=O)CC2		> 100		> 100		> 100		> 100		> 100		> 100				> 100	> 100		
CC1(C)[C@@H](Cn2cnc3c(=O)[nH]c(N)nc32)CC[C@@]1(C)CO		> 100		> 100		> 100				> 100		> 100		> 100 µM	> 100	> 100	> 100		
Cn1c(-c2ccc[se]2)ccc1-c1ccc(CO)[se]1		> 100				> 100		18.8		> 71.5		> 100		> 64.1 µM	0.884		> 60.5		
CC1CCc2c(sc3ncnc(N/N=C/c4ccc(Cl)c(Cl)c4)c23)C1 (configuration not stated)		60.6		57.4		43.8		42.2		58		> 100		54.6 µM	49.4	> 100			
C[C@@H]1C[C@]2(C[C@@H](C)[C@H]3C(C[C@@]4(C)CCC[C@@H]5C6=C[C@H](CCC34C)OC6=CC(=O)OC5(C)C)O2)OC1=O (some centres not stated)		> 51.5		> 51.5		> 51.5		> 51.5				> 51.5		> 51.5 µM		> 51.5			
Oc1ccc2c(c1)CC[N+]1=C2CCC2CCCC21 (configuration not stated)		> 100		> 100		> 100		> 100		> 100		> 100		> 100 µM	> 100				
O=C1c2ccccc2C(=O)c2c1ccc1c2N=C(c2ccc(F)cc2)CC(c2ccc(Cl)c(Cl)c2)N1 (configuration not stated)		34.9				23.5		43		27.8		32.4		18.3 µM	65.6	58.2			
CCOC(=O)c1c2c(n3ccc(NC(=O)OC(C)(C)C)cc13)C(=O)c1ncccc1C2=O	0.118	0.549			0.0153	0.397	0.0273	0.123			0.071	1.21			0.757	0.7		0.174	0.143
CC(=O)NC1C(OCc2ccccc2)OC(CO)C(O)C1OCC(=O)NC(C)C(=O)NC(CCC(=O)NCCCCCNc1c2ccccc2nc2cccc([N+](=O)[O-])c12)C(N)=O (configuration not stated)		0.00116								< 0.0001		< 0.0001		0.0147 µM and 0.014 µM	0.00254				
CCNC(=O)/C=C/CCC#Cc1ccc(-c2ccc(-c3cccs3)s2)s1		> 100		> 100		> 100		> 100		> 100				> 100 µM	> 100	> 100			
O=C1C=C2CO[C@H]3OC[C@H](O)[C@@H]1[C@@H]23				> 100		> 100		> 100		> 100		90		> 100 µM		> 100	> 100		
Cc1ccc(-n2c(O)c3c(N)n[nH]c3c(C#N)c2=O)cc1		> 100		> 100		> 100		> 100				> 100		> 100 µM	> 100		> 100		
O=C1CCCC2=C1C(c1ccc3c(c1)OCO3)Nc1ccc3ccccc3c12 (configuration not stated)		> 100		> 100		> 100		> 100		65.7		> 100			> 100	> 100	> 100		
COc1ccc(-c2nc(-c3cc4ccccc4oc3=O)cs2)cc1		> 100				> 100		> 100		> 100		> 100		> 100 µM	> 100	96.4			
NS(=O)(=O)c1ccc(Nc2c3ccccc3nc3c(C(=O)NCCCN(CCO)CCO)cccc23)cc1				62.5		> 100		36.9		> 100		46.5		59.1 µM		66.1	41.9		
CN1C/C(=C\c2ccc(Cl)cc2)C(=O)/C(=C/c2ccc(Cl)cc2)C1		1.8		6.57				4.59		> 25.3		> 100		0.612 µM	8.7	> 28.5	8.86		
CCN(CC)C(=S)N/N=C/c1ccccn1		0.377		11		2.1				10.1				0.27 µM	0.989		> 100		
COc1ccc(Oc2nc3ccc(C(F)(F)F)cc3nc2-c2ccccc2)cc1				> 100		> 100		> 100		> 100		> 100		> 100 µM	> 100	> 100			
